The values below come from US12180193B2, “Accelerating fibrosarcoma protein degrading compounds and associated methods of use” (Arvinas Operations, Inc., priority 2020, dated 2024).

Test [1] concerns the target T1, BRAF V600E (Homo sapiens, UniProt P15056, V600E).
T1 construct: expressed in transfected cells
Put plainly: Cellular assay of target protein degradation, T-Rex 293 cells stably transfected with HA-BRAF_V600E (HA immunofluorescence, high content imaging). The test is classed as cell-based. The note with it: T-Rex 293 HA-BRAF V600E; for DC50: half maximal degradation, read-out: BRaf V600E DC50; for Dmax: maximum degradation observed. The gist of the method: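 Read-out is anti-HA immunofluorescence quantified by high-content imaging, giving half-maximal degradation concentration (DC50) and maximum degradation (Dmax, percent of control). Cells expressed the construct under 1 ng/mL doxycycline and received compound (1 μM to 0.1 nM final, 0.1% DMSO) for 24 h at 37 °C.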

Test [2] deals with T2, BRAF G466V (Homo sapiens, UniProt P15056, G466V).
T2 construct: expressed in transfected cells
T2 sequence (P15056 whole entry G466V): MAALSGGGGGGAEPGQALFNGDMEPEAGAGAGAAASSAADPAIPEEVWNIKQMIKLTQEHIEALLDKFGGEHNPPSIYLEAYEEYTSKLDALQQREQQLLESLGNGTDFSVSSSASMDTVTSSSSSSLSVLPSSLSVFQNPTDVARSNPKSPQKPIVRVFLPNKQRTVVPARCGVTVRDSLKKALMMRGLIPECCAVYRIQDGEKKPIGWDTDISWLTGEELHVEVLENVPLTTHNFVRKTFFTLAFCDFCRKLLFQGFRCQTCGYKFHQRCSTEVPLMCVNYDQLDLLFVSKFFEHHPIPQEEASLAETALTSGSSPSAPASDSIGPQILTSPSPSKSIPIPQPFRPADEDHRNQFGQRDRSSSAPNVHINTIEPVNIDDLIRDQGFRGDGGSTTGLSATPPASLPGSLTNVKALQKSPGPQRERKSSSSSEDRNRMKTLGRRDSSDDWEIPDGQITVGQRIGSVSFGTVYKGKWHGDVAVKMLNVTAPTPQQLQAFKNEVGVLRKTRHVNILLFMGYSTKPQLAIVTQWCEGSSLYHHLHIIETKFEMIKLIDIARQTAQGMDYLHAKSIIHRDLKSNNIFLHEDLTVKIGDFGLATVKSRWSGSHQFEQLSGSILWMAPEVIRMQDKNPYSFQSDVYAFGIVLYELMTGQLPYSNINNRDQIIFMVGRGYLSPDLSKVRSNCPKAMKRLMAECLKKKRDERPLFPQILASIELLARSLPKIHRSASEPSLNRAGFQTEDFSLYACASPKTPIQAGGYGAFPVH
The experiment in a line: Cellular assay of target protein degradation, T-Rex 293 cells stably transfected with HA-BRAF G466V (HA immunofluorescence, high content imaging). The test is classed as cell-based. Particulars: T-Rex 293 HA-BRAF G466V; for DC50: half maximal degradation, read-out: BRaf G466V DC50; for Dmax: maximum degradation observed. In a few lines: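 First, stably transfected T-Rex 293 cells were plated with 0.75 ng/mL doxycycline and grown for 24 hours. Next, compound (final 30 nM to 3 pM, 0.1% DMSO) was added for another 24 hours at 37° C. Finally, cells were fixed, stained for HA and imaged.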

T1 sequence (P15056 whole entry V600E): as the sequence (P15056 whole entry G466V) above, with V466G, V600E counted along it

Broadly, the DC50 is the concentration at which degradation of the target reaches its halfway point. As usually defined, the Dmax is the greatest extent of degradation seen. Read a low Dmax as shallow degradation. For `O=C1CC[C@H](N2Cc3cc(C4CN(CC5CC6(C5)CN(c5ccc(-c7cnc8[nH]cc(C(=O)c9c(F)ccc(NS(=O)(=O)N%10CC[C@@H](F)C%10)c9F)c8c7)cc5)C6)C4)ccc3C2=O)C(=O)N1` [Compound 99, (3R)-N-{3-[5-(4-{6-[(3-{2-[(3S)-2,6-dioxopiperidin-3-yl]-1-oxo-2,3-dihydro-1H-isoindol-5-yl}azetidin-1-yl)methyl]-2-azaspiro[3.3]heptan-2-yl}phenyl)-1H-pyrrolo[2,3-b]pyridine-3-carbonyl]-2,4-difluorophenyl}-3-fluoropyrrolidine-1-sulfonamide], in test [1], the DC50 fell in the range of 5 to 50 nM and the Dmax lay within 35 to 70%. In addition, in test [2], the half-maximal degradation concentration (DC50) is 1 to 10 nM and the greatest degradation seen (Dmax) was above 70%.
In the same order, the values of `O=C1CC[C@@H](N2Cc3cc(C4CN(CC5CC6(C5)CN(c5ccc(-c7cnc8[nH]cc(C(=O)c9c(F)ccc(NS(=O)(=O)N%10CC[C@@H](F)C%10)c9F)c8c7)cc5)C6)C4)ccc3C2=O)C(=O)N1` [Compound 100, (3R)-N-{3-[5-(4-{6-[(3-{2-[(3R)-2,6-dioxopiperidin-3-yl]-1-oxo-2,3-dihydro-1H-isoindol-5-yl}azetidin-1-yl)methyl]-2-azaspiro[3.3]heptan-2-yl}phenyl)-1H-pyrrolo[2,3-b]pyridine-3-carbonyl]-2,4-difluorophenyl}-3-fluoropyrrolidine-1-sulfonamide] are 5 to 50 nM, 35 to 70%, 1 to 10 nM and above 70%.
As to `O=C1CCC(N2Cc3cc(N4CCN(CC5CN(c6ccc(-c7cnc8[nH]cc(C(=O)c9c(F)ccc(NS(=O)(=O)N%10CC[C@@H](F)C%10)c9F)c8c7)cn6)C5)CC4)ccc3C2=O)C(=O)N1` (stereo partly drawn) [Compound 101, (3R)-N-[3-(5-{6-[3-({4-[2-(2,6-dioxopiperidin-3-yl)-1-oxo-2,3-dihydro-1H-isoindol-5-yl]piperazin-1-yl}methyl)azetidin-1-yl]pyridin-3-yl}-1H-pyrrolo[2,3-b]pyridine-3-carbonyl)-2,4-difluorophenyl]-3-fluoropyrrolidine-1-sulfonamide], in test [1], the DC50 is 5 to 50 nM and the Dmax was in the range of 35 to 70%. In test [2], the DC50 fell in the range of 1 to 10 nM and the Dmax is above 70%.
For the compound `COc1cc(CN2CCN(c3ccc(-c4cnc5[nH]cc(C(=O)c6c(F)ccc(NS(=O)(=O)N7CC[C@@H](F)C7)c6F)c5c4)cc3)CC2)cc2c1C(=O)N(C1CCC(=O)NC1=O)C2` (stereo partly drawn) [Compound 102, (3R)-N-(3-{5-[4-(4-{[2-(2,6-dioxopiperidin-3-yl)-7-methoxy-1-oxo-2,3-dihydro-1H-isoindol-5-yl]methyl}piperazin-1-yl)phenyl]-1H-pyrrolo[2,3-b]pyridine-3-carbonyl}-2,4-difluorophenyl)-3-fluoropyrrolidine-1-sulfonamide], in test [1], the DC50 is above 500 nM and the Dmax was above 70%. In addition, in test [2], the DC50 was 1 to 10 nM and the Dmax fell in the range of 35 to 70%.
In the same order, the values of `O=C1CCC(N2Cc3cc(C4CCN(CC5CC6(C5)CN(c5ccc(-c7cnc8[nH]cc(C(=O)c9c(F)ccc(NS(=O)(=O)N%10CC[C@@H](F)C%10)c9F)c8c7)cn5)C6)CC4)ccc3C2=O)C(=O)N1` (stereo partly drawn) [Compound 103, (3R)-N-[3-(5-{6-[6-({4-[2-(2,6-dioxopiperidin-3-yl)-1-oxo-2,3-dihydro-1H-isoindol-5-yl]piperidin-1-yl}methyl)-2-azaspiro [3.3]heptan-2-yl]pyridin-3-yl}-1H-pyrrolo[2,3-b]pyridine-3-carbonyl)-2,4-difluorophenyl]-3-fluoropyrrolidine-1-sulfonamide] are 5 to 50 nM, 35 to 70%, 1 to 10 nM and above 70%.
In the case of `O=C1CCC(N2Cc3cc(N4CCC(CN5CCC6(CCN(c7ccc(-c8cnc9[nH]cc(C(=O)c%10c(F)ccc(NS(=O)(=O)N%11CC[C@@H](F)C%11)c%10F)c9c8)cc7F)CC6)C5)CC4)ccc3C2=O)C(=O)N1` (stereo partly drawn) [Compound 104, (3R)-N-[3-(5-{4-[2-({1-[2-(2,6-dioxopiperidin-3-yl)-1-oxo-2,3-dihydro-1H-isoindol-5-yl]piperidin-4-yl}methyl)-2,8-diazaspiro [4.5]decan-8-yl]-3-fluorophenyl}-1H-pyrrolo [2,3-b]pyridine-3-carbonyl)-2,4-difluorophenyl]-3-fluoropyrrolidine-1-sulfonamide], in test [1], the DC50 is below 5 nM and the Dmax was below 35%. In test [2], the DC50 was in the range of 1 to 10 nM and the Dmax is above 70%.
As to `O=C1CC[C@H](N2Cc3cc([C@H](O)CCN4CC5(C4)CN(c4ccc(-c6cnc7[nH]cc(C(=O)c8c(F)ccc(NS(=O)(=O)N9CC[C@@H](F)C9)c8F)c7c6)cc4)C5)ccc3C2=O)C(=O)N1` [Compound 105, (3R)—N-[3-[5-[4-[6-[(3R)-3-[2-[(3S)-2,6-dioxo-3-piperidyl]-1-oxo-isoindolin-5-yl]-3-hydroxy-propyl]-2,6-diazaspiro[3.3]heptan-2-yl]phenyl]-1H-pyrrolo[2,3-b]pyridine-3-carbonyl]-2,4-difluoro-phenyl]-3-fluoro-pyrrolidine-1-sulfonamide], in test [1], the DC50 lay within 5 to 50 nM and the Dmax fell in the range of 35 to 70%. Further, in test [2], the DC50 lay in the range of 1 to 10 nM and the Dmax fell in the range of 35 to 70%.
On to `O=C1CC[C@H](N2Cc3cc([C@@H](O)CCN4CC5(C4)CN(c4ccc(-c6cnc7[nH]cc(C(=O)c8c(F)ccc(NS(=O)(=O)N9CC[C@@H](F)C9)c8F)c7c6)cc4)C5)ccc3C2=O)C(=O)N1` [Compound 106, (3R)-N-{3-[5-(4-{6-[(3S)-3-{2-[(3S)-2,6-dioxopiperidin-3-yl]-1-oxo-2,3-dihydro-1H-isoindol-5-yl}-3-hydroxypropyl]-2,6-diazaspiro[3.3]heptan-2-yl}phenyl)-1H-pyrrolo[2,3-b]pyridine-3-carbonyl]-2,4-difluorophenyl}-3-fluoropyrrolidine-1-sulfonamide], for which, in test [1], the DC50 lay in the range of 5 to 50 nM and the greatest degradation seen (Dmax) was 35 to 70%. Moreover, in test [2], the half-maximal degradation concentration (DC50) was in the range of 1 to 10 nM and the Dmax was above 70%.
With `O=C1CC[C@H](N2Cc3cc(C[C@@H](O)CN4CCC(c5ccc(-c6cnc7[nH]cc(C(=O)c8c(F)ccc(NS(=O)(=O)N9CC[C@@H](F)C9)c8F)c7c6)cc5)CC4)ccc3C2=O)C(=O)N1` [Compound 107], the 50% degradation concentration (DC50) in test [1] was 5 to 50 nM; in test [2] it was 1 to 10 nM. The Dmax in test [1] and in test [2] was 35 to 70% each time.
`O=C1CC[C@@H](N2Cc3cc(C[C@@H](O)CN4CCC(c5ccc(-c6cnc7[nH]cc(C(=O)c8c(F)ccc(NS(=O)(=O)N9CC[C@@H](F)C9)c8F)c7c6)cc5)CC4)ccc3C2=O)C(=O)N1` [Compound 108, (3R)-N-{3-[5-(4-{1-[(2R)-3-{2-[(3R)-2,6-dioxopiperidin-3-yl]-1-oxo-2,3-dihydro-1H-isoindol-5-yl}-2-hydroxypropyl]piperidin-4-yl}phenyl)-1H-pyrrolo[2,3-b]pyridine-3-carbonyl]-2,4-difluorophenyl}-3-fluoropyrrolidine-1-sulfonamide]: in test [1], the 50% degradation concentration (DC50) is 5 to 50 nM and the Dmax lay within 35 to 70%. Moreover, in test [2], the DC50 is 1 to 10 nM and the Dmax was above 70%.
In the same order, the values of `O=C1CC[C@H](N2Cc3cc(C[C@H](O)CN4CCC(c5ccc(-c6cnc7[nH]cc(C(=O)c8c(F)ccc(NS(=O)(=O)N9CC[C@@H](F)C9)c8F)c7c6)cc5)CC4)ccc3C2=O)C(=O)N1` [Compound 109, (3R)-N-{3-[5-(4-{1-[(2S)-3-{2-[(3S)-2,6-dioxopiperidin-3-yl]-1-oxo-2,3-dihydro-1H-isoindol-5-yl}-2-hydroxypropyl]piperidin-4-yl}phenyl)-1H-pyrrolo[2,3-b]pyridine-3-carbonyl]-2,4-difluorophenyl}-3-fluoropyrrolidine-1-sulfonamide] are 5 to 50 nM, 35 to 70%, 1 to 10 nM and above 70%.
As for `O=C1CCC(N2Cc3cc(C4CCN(C[C@H](O)Cc5ccc(-c6cnc7[nH]cc(C(=O)c8c(F)ccc(NS(=O)(=O)N9CC[C@@H](F)C9)c8F)c7c6)cc5)CC4)ccc3C2=O)C(=O)N1` (stereo partly drawn) [Compound 110, (3R)-N-[3-(5-{4-[(2R)-3-{4-[2-(2,6-dioxopiperidin-3-yl)-1-oxo-2,3-dihydro-1H-isoindol-5-yl]piperidin-1-yl}-2-hydroxypropyl]phenyl}-1H-pyrrolo[2,3-b]pyridine-3-carbonyl)-2,4-difluorophenyl]-3-fluoropyrrolidine-1-sulfonamide], in test [1], the DC50 was 50 to 500 nM and the Dmax was in the range of 35 to 70%. In addition, in test [2], the DC50 fell in the range of 1 to 10 nM and the Dmax was above 70%.
Take `O=C1CCC(N2Cc3cc(N4CCC(CN5CC6(CCN(c7ccc(-c8cnc9[nH]cc(C(=O)c%10c(F)ccc(NS(=O)(=O)N%11CC[C@@H](F)C%11)c%10F)c9c8)cc7F)C6)C5)CC4)ccc3C2=O)C(=O)N1` (stereo partly drawn) [Compound 111, (3R)-N-[3-(5-{4-[2-({1-[2-(2,6-dioxopiperidin-3-yl)-1-oxo-2,3-dihydro-1H-isoindol-5-yl]piperidin-4-yl}methyl) 2,6-diazaspiro[3.4]octan-6-yl]-3-fluorophenyl}-1H-pyrrolo[2,3-b]pyridine-3-carbonyl)-2,4-difluorophenyl]-3-fluoropyrrolidine-1-sulfonamide]: in test [1], the DC50 was below 5 nM and the Dmax lay in the range of 35 to 70%. For the same compound, in test [2], the DC50 fell in the range of 1 to 10 nM and the Dmax fell in the range of 35 to 70%.
